Laboratory results: PubChem BioAssay AID1919013 (Molecular Pharmacology Branch, DTP, NCI, 2023)

System: LG0703-F498-PDC complex spheroid growth
Experiment: Anticancer human tumor LG0703-F498-PDC patient-derived lung adenocarcinoma cell line growth inhibition [AhR]
Settings: for IC50: curve of first compound; for viability, T/C: stronger effect = lower value
Text: Multicellular complex tumor spheroid response to aryl hydrocarbon receptor antagonists in combination with a variety of drugs and investigational agents in selected tumor cell lines
The current study was undertaken to assess response to aryl hydrocarbon receptor antagonists in combination with standard-of-care drugs and investigational agents in solid tumor complex spheroid models. Complex spheroids include a stromal component modeled by human endothelial cells (HUVEC) and fibroblasts modeled by human mesenchymal stem cells (MSCs). The concentration ranges selected for each drug and investigational agent were based upon clinically achievable concentrations if the clinical Cmax of the agent was known.
Compounds. The drugs and investigational agents: BAY 2416964 (NSC825713), GNF351 (NSC835774), CH-223191 (NSC835775), CPI-455 (NSC825282), aza-TdCyd (NSC777586), decitabine (NSC127716), belinostat (NSC758774), entinostat (NSC756642), pevonedistat (NSC761192), tazemetostat (NSC777109), talazoparib (NSC765396), olaparib (NSC753686), selinexor (NSC780203), nedisertib (M3814, NSC802822), bortezomib (NSC756655), venetoclax (NSC766270), doxorubicin (NSC123127), elimusertib (BAY189344, NSC800525), ceralasertib (AZD6738, NSC777638), TAK-243 (NSC785004), alisertib (NSC759677), etoposide (NSC141540), topotecan (NSC609699), eribulin (NSC707389), gemcitabine (NSC613327), carboplatin (NSC241240), cisplatin (NSC119875), and SN-38 (NSC673596) were obtained from the National Cancer Institute (NCI) Developmental Therapeutics Program Chemical Repository (32). The FDA-approved anticancer drug set is available from the Developmental Therapeutics Program at https://dtp.cancer.gov/organization/dscb/obtaining/available plates.htm. […] The stock solutions were prepared in dimethyl sulfoxide (DMSO, Sigma-Aldrich, St. Louis, MO, cat. D2650), except for the platinum compounds which were prepared in saline (Quality Biological, Gaithersburg, MD, cat. 114-055-101), at 800-fold the tested concentration and stored at -70 degrees C prior to their use. All drugs and investigational agents were tested over a range starting from a high concentration at or near the clinical Cmax and decreasing in half-log increments. If the clinical Cmax for an agent had not been determined, the highest concentration tested was 10 microM (Table 1).
Cell Culture. All cells were maintained in an incubator at 37 degrees C and 5% CO2 with 95% humidity. The PDC lines were cultured according to standard operating procedures established by the NCI PDMR (https://pdmr.cancer.gov). Briefly, all PDCs were thawed and cultured in Matrigel-coated flasks prepared with a working solution of 1X Ham's F-12 nutrient mix, without supplementation (Invitrogen, Waltham, MA, cat. 11765054), 100 U/mL penicillin-streptomycin (Invitrogen, cat. 15140122), and 2.5% Matrigel (Corning Inc., Corning, NY, cat. 354248) for the first three passages. All PDCs were cultured in complete DMEM/F-12 media containing advanced DMEM/F-12 (Invitrogen, cat. 12634028), 4.9% defined fetal bovine serum, heat inactivated (HyClone Laboratories Inc., Logan, UT, cat. SH30070.03HI), 389 ng/mL hydrocortisone (Sigma-Aldrich, cat. H4001), 9.7 ng/mL human EGF recombinant protein (Invitrogen, cat. PHG0313), 23.4 microg/mL adenine (Sigma-Aldrich, cat. A2786), 97.3 U/mL penicillin-streptomycin (Invitrogen, cat. 15140122), 1.9 mM L-glutamine (Invitrogen, cat. 25030081), and 9.7 microM Y-27632 dihydrochloride (Tocris Bioscience, Bristol, United Kingdom, cat. 1254). The PDCs were cultured in complete DMEM/F12 media without 10 microM Y-27632 dihydrochloride for at least two passages prior to the screen. The established cell lines NCI-H1341 and […] were cultured in DMEM/F-12, HEPES (Invitrogen, cat. 11330032), 5% defined fetal bovine serum (HyClone Laboratories Inc., cat. SH30070.03), ITS premix universal culture supplement [insulin (5 microg/mL), transferrin (5 microg/mL), and selenious acid (5 ng/mL)] […]

[1] = second compound 0.1 µM, first compound 0.0316 µM
[2] = second compound 0.1 µM, first compound 0.1 µM
[3] = second compound 0.1 µM, first compound 0.316 µM
[4] = second compound 0.1 µM, first compound 1 µM
[5] = second compound 0.1 µM, first compound 3.16 µM
[6] = second compound 0.1 µM, first compound 10 µM
[7] = second compound 0.316 µM, first compound 0.0316 µM
[8] = second compound 0.316 µM, first compound 0.1 µM
[9] = second compound 0.316 µM, first compound 0.316 µM
[10] = second compound 0.316 µM, first compound 1 µM
[11] = second compound 0.316 µM, first compound 3.16 µM
[12] = second compound 0.316 µM, first compound 10 µM
[13] = second compound 1 µM, first compound 0.0316 µM
[14] = second compound 1 µM, first compound 0.1 µM
[15] = second compound 1 µM, first compound 0.316 µM
[16] = second compound 1 µM, first compound 1 µM
[17] = second compound 1 µM, first compound 3.16 µM
[18] = second compound 1 µM, first compound 10 µM
[19] = second compound 3.16 µM, first compound 0.0316 µM
[20] = second compound 3.16 µM, first compound 0.1 µM
[21] = second compound 3.16 µM, first compound 0.316 µM
[22] = second compound 3.16 µM, first compound 1 µM
[23] = second compound 3.16 µM, first compound 3.16 µM
[24] = second compound 3.16 µM, first compound 10 µM
[25] = second compound 10 µM, first compound 0.0316 µM
[26] = second compound 10 µM, first compound 0.1 µM
[27] = second compound 10 µM, first compound 0.316 µM
[28] = second compound 10 µM, first compound 1 µM
[29] = second compound 10 µM, first compound 3.16 µM
[30] = second compound 10 µM, first compound 10 µM
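Note: luminescence taken as a proxy for viable cell amount.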
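Throughout, for viability, T/C: percent of DMSO vehicle control where 100% means growth equal to vehicle.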

| IC50 (second compound 0.1 µM) | IC50 (second compound 0.316 µM) | IC50 (second compound 1 µM) | IC50 (second compound 3.16 µM) | IC50 (second compound 10 µM) | Structure (SMILES) | viability, T/C [1] | viability, T/C [2] | viability, T/C [3] | viability, T/C [4] | viability, T/C [5] | viability, T/C [6] | viability, T/C [7] | viability, T/C [8] | viability, T/C [9] | viability, T/C [10] | viability, T/C [11] | viability, T/C [12] | viability, T/C [13] | viability, T/C [14] | viability, T/C [15] | further results |
| --- | --- | --- | --- | --- | --- | --- | --- | --- | --- | --- | --- | --- | --- | --- | --- | --- | --- | --- | --- | --- | --- |
| > 10 µM | > 10 µM | > 10 µM | > 10 µM | > 10 µM | COc1cc(C2c3cc4c(cc3C(OC3OC5COC(C)OC5C(O)C3O)C3COC(=O)C23)OCO4)cc(OC)c1O (stereo not given) + CC(CO)NC(=O)c1cc(-c2ccc(Cl)cc2)nn(-c2cnn(C)c2)c1=O | 111% | 108% | 93.9% | 87.9% | 81.8% | 76.3% | 98.6% | 107% | 99.8% | 81.5% | 93.3% | 69.9% | 100% | 103% | 101% | viability, T/C [16]: 94.3%; viability, T/C [17]: 75.7%; viability, T/C [18]: 75.2%; viability, T/C [19]: 91.1%; viability, T/C [20]: 95.8%; viability, T/C [21]: 96.5%; viability, T/C [22]: 81.7%; viability, T/C [23]: 72.8%; viability, T/C [24]: 75.5%; viability, T/C [25]: 84.3%; viability, T/C [26]: 85.7%; viability, T/C [27]: 90.7%; viability, T/C [28]: 78%; viability, T/C [29]: 73%; viability, T/C [30]: 60.8% |
| > 10 µM | 5.36 µM | 6.05 µM | 4.05 µM | 5.02 µM | COc1cc(Nc2ncc3c(n2)-c2ccc(Cl)cc2C(c2c(F)cccc2OC)=NC3)ccc1C(=O)O + Cc1ccccc1N=Nc1ccc(NC(=O)c2ccnn2C)c(C)c1 | 93.2% | 79.5% | 60.5% | 68.5% | 67.9% | 45.3% | 84.4% | 82.2% | 70.9% | 74% | 57.7% | 39.7% | 86.6% | 82.6% | 65.4% | viability, T/C [16]: 65.3%; viability, T/C [17]: 54.2%; viability, T/C [18]: 46%; viability, T/C [19]: 73.9%; viability, T/C [20]: 71.8%; viability, T/C [21]: 61.3%; viability, T/C [22]: 62.5%; viability, T/C [23]: 53.8%; viability, T/C [24]: 40.8%; viability, T/C [25]: 70.9%; viability, T/C [26]: 61.5%; viability, T/C [27]: 62.5%; viability, T/C [28]: 70.4%; viability, T/C [29]: 55.7%; viability, T/C [30]: 38% |
